Earlier results on one compound are cited in patent publication US20200178572A1 (priority 2017, published 2020).

Structures are written as SMILES.

For this data set the following is noted: in vivo.

In the case of `CC1=CC[C@H]2C[C@@H]1C2(C)C` [α-Pinene, (1S,5S)-2,6,6-Trimethylbicyclo[3.1.1]hept-2-ene], the human pulmonary uptake is 60%.
